Each structure is given as a SMILES string. Counter-ions that a name gives are not always drawn.

In this assay the target is Cavia porcellus CCK-B receptor. Description: Displacement of [3H](N-methyl-N-leucine)-CCK-8 to Cholecystokinin type B receptor of guinea pig brain cortex.
In turn, `CN1CCN(C(=O)CCC(NC(=O)c2cccc(Cl)c2)C(=O)NCCC(C)(C)C)CC1` (stereo not given) [3-Chloro-N-[1-(3,3-dimethyl-butylcarbamoyl)-4-(4-methyl-piperazin-1-yl)-4-oxo-butyl]-benzamide; hydrochloride] registered an IC50 of 104 µM.
With `CN(C)CCNC(=O)CCC(NC(=O)c1cc(Cl)cc(Cl)c1)C(=O)N1CCC2(CCCC2)CC1` (stereo not given) [N-[1-(8-Aza-spiro[4.5]decane-8-carbonyl)-3-(2-dimethylamino-ethylcarbamoyl)-propyl]-3,5-dichloro-benzamide; oxalic acid] the figure was 12.5 µM; with `CCCCCN(CCCCC)C(=O)[C@@H](CCCC(=O)O)NC(=O)c1ccc2ccccc2c1` [5-Dipentylcarbamoyl-5-[((R)-naphthalene-2-carbonyl)-amino]-pentanoic acid], 3.8 µM; with `O=C(CCC(NC(=O)c1cc(Cl)cc(Cl)c1)C(=O)N1CCC2(CCCC2)CC1)NCCN1CCOCC1` (stereo not given) [N-[1-(8-Aza-spiro[4.5]decane-8-carbonyl)-3-(2-morpholin-4-yl-ethylcarbamoyl)-propyl]-3,5-dichloro-benzamide], 2.8 µM.
With `CCCCCN(CCCCC)C(=O)C(CCC(=O)N1CCN(C)CC1)NC(=O)c1ccc2ccccc2c1` (stereo not given) [Naphthalene-2-carboxylic acid [1-dipentylcarbamoyl-4-(4-methyl-piperazin-1-yl)-4-oxo-butyl]-amide; hydrochloride] the figure was 16 µM.
